# pIC50: −log10 of the molar value.
# Key:
# [1] = system: hSC-CMs (Cor.4U Cardiomyocytes); experiment: Apoptosis assay (CellEvent Caspase-3/7 Green, IncuCyte ZOOM kinetics over 24 h); format: cell-based, human; parameters: key to Caspase / Caspase MEAN: % of time-matched vehicle control (green object area); settings: for activity at 0.01 µM / activity at 0.1 µM / activity at 1 µM / activity at 10 µM: Homo sapiens, Cardiomyocyte; for activity at 0.01 µM / activity at 0.1 µM / activity at 1 µM / activity at 10 µM / Caspase: normalized to time-matched vehicle control
# Protocol: Cor.4U® Cardiomyocytes ([…], Netherlands) were cultured in 96-well plates at density of 25,000 - 30,000 cells per well. Cells were maintained at 5% CO2 and 37 °C for 4 days prior to experiments. […] The plates were incubated 2 h before compound treatment in the IncuCyte ZOOM (ESSEN BioScience, Ann Arbor, Michigan) to set a baseline before the 24 h compound treatment. […] Imaging was done using 10x microscope objective of the IncuCyteZOOM with four images per well-taken every 2 h in both phase-contrast and green fluorescence. The fluorescent nuclear signal of the apoptotic cells was separated from background with the integrated object counting algorithm, adjusted to cardiomyocytes, and the calculated total green object area per well (μm^2/well) plotted against time. Data were normalized to those of the time-matched vehicle control. Data were representative of at least three replicates per concentration.
# [2] = system: hSC-CMs (Cor.4U Cardiomyocytes); experiment: CardioExcyte 96 impedance and EFP recording (beating rate, base impedance); format: cell-based, human; settings: for activity at 0.01 µM / activity at 0.1 µM / activity at 1 µM / activity at 10 µM: Homo sapiens, Cardiomyocyte; for activity at 0.01 µM / activity at 0.1 µM / activity at 1 µM / activity at 10 µM / BR / Base Imp: vs baseline before drug (taken as 100%)
# Protocol: Cor.4U® Cardiomyocytes (Ncardia, Netherlands) were cultured in 96-well plates at density of 25,000 – 30,000 cells per well. Cells were maintained at 5% CO2 and 37 °C for 4 days prior to experiments.
# Functional monitoring of cardiomyocytes was done using CardioExcyte® 96 (Nanion technologies GmbH, Germany). Extracellular field potential (EFP) and impedance signals were recorded from hSC-CMs that formed monolayers in the wells of the NSP-96 plate. Beating Rate (BR, per minute) was calculated as the reciprocal of the inter-spike interval (ISI) in EFP signal. Impedance signals from spontaneously beating hSC-CMs were recorded with a sampling rate of 1 ms (1 kHz), and EFP data were collected at 0.1ms (10 kHz). Data acquisition was controlled by CardioExcyte® 96 Control software as previously described ([22]). The functional parameters recorded in each concentration of test items were compared to the base line values before drug addition (taken as 100%) to define fractional change.
# [3] = system: hSC-CMs (Cor.4U Cardiomyocytes); experiment: ATP assay (CellTiter-Glo Luminescent Cell Viability Assay); format: cell-based, human; settings: for viability at 0.01 µM / viability at 0.1 µM / viability at 1 µM / viability at 10 µM: Homo sapiens, Cardiomyocyte; for viability at 0.01 µM / viability at 0.1 µM / viability at 1 µM / viability at 10 µM / ATP: normalized to time-matched DMSO control
# Protocol: Cor.4U® Cardiomyocytes (Ncardia, Netherlands) were cultured in 96-well plates at density of 25,000 – 30,000 cells per well. Cells were maintained at 5% CO2 and 37 °C for 4 days prior to experiments. The cell culture medium (Cor4U® Complete Culture Medium, cat# Ax-M-HC250E, Axiogenesis AG, Cologne, Germany) was changed every 24 h and was replaced by serum-free BMCC medium (cat# Ax-M-BMCC259, Axiogenesis AG, Cologne, Germany) 12 h prior to drug addition.
# The CellTiter-Glo Luminescent Cell Viability Assay (cat# G7572, Promega, USA) was performed for quantification of the cellular ATP concentration according to manufacturer's instructions. Plates were shaken for 2 min in the dark, incubated at ambient temperature for 10 min before measuring luminescence (Integration time 0.1 seconds per well) with Luminescence Counter (Synergy H1, BioTek Instruments, Inc., Winooski, Vermont). The measured ATP concentration values were normalized to the time-matched DMSO controls. Data are representative of at least three replicates per concentration.
# [4] = system: PI3K p110β; settings: ref [23]–[25] (NVP-BEZ235), [27] (LY 294002), [28] (GDC-0941), [32] (TGX-221), [33] (CAL-101), [35] (CZC24832); read-out: Target IC50 p110β; cited from earlier work
# [5] = system: PI3K p110γ; settings: ref [23]–[25] (NVP-BEZ235), [28] (GDC-0941), [33] (CAL-101), [35] (CZC24832); read-out: Target IC50 p110γ; cited from earlier work
# [6] = system: ROCK2; settings: ref [36] (RKI-1447), [37], [38] (Fasudil), [39]–[43] (Y-27632), [44], [45] (GSK-429286); read-out: Target IC50 ROCK2; cited from earlier work
smiles,measurement,setting,value
CC(C)(C)NS(=O)(=O)c1cncc(-c2cc(F)c3nc(N)nn3c2)c1 [CZC24832],activity at 0.01 µM,[1]; 2h,87%
same,activity at 0.01 µM,[1]; 24h,79%
same,activity at 0.1 µM,[1]; 2h,132%
same,activity at 0.1 µM,[1]; 24h,88%
same,activity at 1 µM,[1]; 2h,109%
same,activity at 1 µM,[1]; 24h,68%
same,activity at 10 µM,[1]; 2h,102%
same,activity at 10 µM,[1]; 24h,76%
same,"Apoptosis (caspase-3/7 activation), result in words","[1]; hSC-CMs, monitored over 24 h",no effect
same,activity at 0.01 µM,"[2]; 2h, read-out: BR",100%
same,activity at 0.01 µM,"[2]; 2h, read-out: Base Imp",98%
same,activity at 0.01 µM,"[2]; 24h, read-out: BR",96%
same,activity at 0.01 µM,"[2]; 24h, read-out: Base Imp",99%
same,activity at 0.1 µM,"[2]; 2h, read-out: BR",95%
same,activity at 0.1 µM,"[2]; 2h, read-out: Base Imp",98%
same,activity at 0.1 µM,"[2]; 24h, read-out: BR",98%
same,activity at 0.1 µM,"[2]; 24h, read-out: Base Imp",97%
same,activity at 1 µM,"[2]; 2h, read-out: BR",97%
same,activity at 1 µM,"[2]; 2h, read-out: Base Imp",96%
same,activity at 1 µM,"[2]; 24h, read-out: BR",98%
same,activity at 1 µM,"[2]; 24h, read-out: Base Imp",93%
same,activity at 10 µM,"[2]; 2h, read-out: BR",94%
same,activity at 10 µM,"[2]; 2h, read-out: Base Imp",93%
same,activity at 10 µM,"[2]; 24h, read-out: BR",97%
same,activity at 10 µM,"[2]; 24h, read-out: Base Imp",89%
same,"Change in the hSC-CMs parameters (surface plots: beating rate, base impedance, ATP)","[2]; hSC-CMs, 2 and 24 h",below 20%
same,"Effect on hSC-CMs function (base impedance and beating rate), in words","[2]; hSC-CMs, 2 and 24 h",did not have any effect
same,viability at 0.01 µM,[3]; 2h,100%
same,viability at 0.01 µM,[3]; 24h,100%
same,viability at 0.1 µM,[3]; 2h,99%
same,viability at 0.1 µM,[3]; 24h,97%
same,viability at 1 µM,[3]; 2h,99%
same,viability at 1 µM,[3]; 24h,97%
same,viability at 10 µM,[3]; 2h,101%
same,viability at 10 µM,[3]; 24h,100%
same,"Effect on ATP level, in words","[3]; hSC-CMs, up to the highest test concentrations",did not have any effect
same,pIC50,[4],5.96
same,pIC50,[5],7.57
C[C@@H](N)C1CCC(C(=O)Nc2ccncc2)CC1.Cl.Cl (stereo partly drawn) [Y-27632],Caspase,"[1]; 0.3 µM, 2h",119
same,Caspase,"[1]; 0.3 µM, 24h",94
same,Caspase,"[1]; 3 µM, 2h",163
same,Caspase,"[1]; 3 µM, 24h",129
same,Caspase,"[1]; 30 µM, 2h",104
same,Caspase,"[1]; 30 µM, 24h",163
same,Caspase,"[1]; 300 µM, 2h",96
same,Caspase,"[1]; 300 µM, 24h",306
same,Time of notable raise in the caspase-3/7 activity,[1]; highest test concentrations only,12 to 18 h
same,"Apoptosis (caspase-3/7 activity) at the highest test concentration, in words","[1]; top / highest test concentration, over 24 h",slow initial phase followed by a notable raise in the caspase-3/7 activity
same,"Effect on beating rate, in words",[2],reduced cardiomyocyte beating at both 2 h and 24 h time points
same,BR,"[2]; 0.3 µM, 2h",101
same,Base Imp,"[2]; 0.3 µM, 2h",89
same,BR,"[2]; 0.3 µM, 24h",95
same,Base Imp,"[2]; 0.3 µM, 24h",88
same,BR,"[2]; 3 µM, 2h",99
same,Base Imp,"[2]; 3 µM, 2h",89
same,BR,"[2]; 3 µM, 24h",100
same,Base Imp,"[2]; 3 µM, 24h",85
same,BR,"[2]; 30 µM, 2h",99
same,Base Imp,"[2]; 30 µM, 2h",80
same,BR,"[2]; 30 µM, 24h",101
same,Base Imp,"[2]; 30 µM, 24h",67
same,BR,"[2]; 300 µM, 2h",76
same,Base Imp,"[2]; 300 µM, 2h",61
same,BR,"[2]; 300 µM, 24h",68
same,Base Imp,"[2]; 300 µM, 24h",54
same,"Secondary beats at 300 uM, MEAN","[2]; 300 uM, unlabelled side calculation under the 24h data",103.939
same,ATP,"[3]; 0.3 µM, 2h",105
same,ATP,"[3]; 0.3 µM, 24h",100
same,ATP,"[3]; 3 µM, 2h",102
same,ATP,"[3]; 3 µM, 24h",101
same,ATP,"[3]; 30 µM, 2h",103
same,ATP,"[3]; 30 µM, 24h",103
same,ATP,"[3]; 300 µM, 2h",109
same,ATP,"[3]; 300 µM, 24h",104
same,pIC50,[6],7.05

# — publication PMC8242589, “Cardiac Safety of Kinase Inhibitors – Improving Understanding and Prediction of Liabilities in Drug Discovery Using Human Stem Cell-Derived Models” (Frontiers in Cardiovascular Medicine, 2021)
